pIC50: −log10 of the molar value. Calls of active or inactive are those of the source.
Experiments:
[1] = organism: Ovis aries; experiment: Inhibition of sheep dynamin 1 GTPase activity up to 300 uM after 30 mins by malachite-green method
[2] = organism: Homo sapiens; experiment: Inhibition of clathrin at 100 uM
[3] = Inhibition of sheep dynamin 1 GTPase activity after 30 mins by malachite-green method; set-up: species or system Ovis aries
[4] = molecular target: T1, Dynamin-1 (Homo sapiens) (UniProt Q05193); experiment: Inhibition of dynamin1-mediated endocytosis in human U2OS cells assessed as inhibition of Texas red-Tf uptake incubated up to 300 uM for 30 mins prior to Texas red-Tf addition measured after 8 mins by receptor-mediated endocytosis assay; format: cell-based
T1 sequence (whole entry): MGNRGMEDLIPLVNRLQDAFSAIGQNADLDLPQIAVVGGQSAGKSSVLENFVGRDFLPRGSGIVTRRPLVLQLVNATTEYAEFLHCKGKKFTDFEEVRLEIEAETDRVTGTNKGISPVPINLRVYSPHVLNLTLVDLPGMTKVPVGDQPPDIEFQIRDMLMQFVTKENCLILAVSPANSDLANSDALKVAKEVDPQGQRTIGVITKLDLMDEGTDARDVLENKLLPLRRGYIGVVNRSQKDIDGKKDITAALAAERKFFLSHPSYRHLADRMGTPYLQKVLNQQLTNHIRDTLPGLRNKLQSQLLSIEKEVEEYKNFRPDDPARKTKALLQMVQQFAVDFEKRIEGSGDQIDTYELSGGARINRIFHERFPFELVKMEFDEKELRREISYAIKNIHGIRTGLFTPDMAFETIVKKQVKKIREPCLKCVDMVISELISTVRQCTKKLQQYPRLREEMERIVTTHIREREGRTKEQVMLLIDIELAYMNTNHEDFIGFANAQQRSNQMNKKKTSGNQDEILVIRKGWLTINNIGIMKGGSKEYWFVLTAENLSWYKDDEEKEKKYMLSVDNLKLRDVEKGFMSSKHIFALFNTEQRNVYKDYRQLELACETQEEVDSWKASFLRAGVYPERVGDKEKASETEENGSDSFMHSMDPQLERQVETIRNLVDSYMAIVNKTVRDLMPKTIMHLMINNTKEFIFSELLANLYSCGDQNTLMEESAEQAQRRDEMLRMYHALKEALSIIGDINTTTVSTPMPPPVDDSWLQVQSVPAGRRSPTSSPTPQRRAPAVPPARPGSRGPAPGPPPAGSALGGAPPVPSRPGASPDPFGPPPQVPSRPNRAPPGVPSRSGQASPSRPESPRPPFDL

Compound	inhibition [1]	inhibition [2]	pIC50 [3]	inhibition [4]
O=C1NC(=S)S/C1=C\c1ccc(Br)cc1	inactive	inactive		
CCN1C(=O)/C(=C/c2ccc(OCCCN(C)C)cc2)SC1=S		inactive	5.19	
O=C1/C(=C/C2=Cc3ccccc3OC2)SC(=S)N1Cc1ccccc1	inactive	inactive		
CN(C)CCCOc1ccc(/C=C2\SC(=S)NC2=O)cc1	inactive	inactive		
C=CCN1C(=O)/C(=C/c2ccc(-c3ccccc3)cc2)SC1=S	inactive	inactive		
CCN1C(=O)/C(=C/c2csc3ccc(Cl)cc23)SC1=S	inactive	inactive		
O=C(O)CCN1C(=O)/C(=C/c2ccc3nsnc3c2)SC1=S		inactive	< 4.00	
O=C(O)CCN1C(=O)/C(=C/c2cnc3ccccc3n2)SC1=S	inactive	inactive		
O=C1/C(=C/c2ccc(-c3ccccc3)cc2)SC(=S)N1Cc1ccccc1	inactive	inactive		
CN(C)CCCOc1ccc(/C=C2\SC(=S)N(CC(=O)O)C2=O)cc1	inactive	inactive		
CCN1C(=O)/C(=C/c2ccc(Br)cc2)SC1=S	inactive	inactive		
O=C1/C(=C/c2csc3ccc(Cl)cc23)SC(=S)N1Cc1ccccc1	inactive	inactive		
O=C(O)CN1C(=O)/C(=C/c2csc3ccc(Cl)cc23)SC1=S		inactive	4.91	
O=C1NC(=S)S/C1=C\c1ccc2nonc2c1		inactive	5.13	
C=CCN1C(=O)/C(=C/c2coc3c(Cl)cc(Cl)cc3c2=O)SC1=S		inactive	< 4.00	
O=C1/C(=C/c2cnc3ccccc3n2)SC(=S)N1Cc1ccccc1	inactive	inactive		
O=C1NC(=S)S/C1=C\c1coc2c(Cl)cc(Cl)cc2c1=O		inactive	4.62	
CCN1C(=O)/C(=C/c2ccc3nsnc3c2)SC1=S	inactive	inactive		
O=C1/C(=C/c2ccc(Br)cc2)SC(=S)N1Cc1ccccc1		inactive	3.87	
CN(C)CCCOc1ccc(/C=C2\SC(=S)N(Cc3ccccc3)C2=O)cc1		inactive	4.66	inactive

Compound	inhibition [1]	inhibition [2]	pIC50 [3]	inhibition [4]
O=C(O)CN1C(=O)/C(=C/c2ccc(Br)cc2)SC1=S		inactive	< 4.00	
O=C(O)CCN1C(=O)/C(=C/c2ccc(-c3ccccc3)cc2)SC1=S		inactive	4.38	
C=CCN1C(=O)/C(=C/c2ccc3nsnc3c2)SC1=S	inactive	inactive		
O=C1/C(=C/c2ccc3nsnc3c2)SC(=S)N1Cc1ccccc1	inactive	inactive		
O=C(O)CN1C(=O)/C(=C/c2coc3c(Cl)cc(Cl)cc3c2=O)SC1=S		inactive	5.47	
O=C1NC(=S)S/C1=C\C1=Cc2ccccc2OC1		inactive	4.05	
CCN1C(=O)/C(=C/C2=Cc3ccccc3OC2)SC1=S	inactive	inactive		
O=C(O)CN1C(=O)/C(=C/c2cnc3ccccc3n2)SC1=S		inactive	< 4.00	
O=C(O)CCN1C(=O)/C(=C/c2ccc3nonc3c2)SC1=S	inactive	inactive		
CCN1C(=O)/C(=C/c2ccc3nonc3c2)SC1=S	inactive	inactive		
O=C(O)CCN1C(=O)/C(=C/c2coc3c(Cl)cc(Cl)cc3c2=O)SC1=S		inactive	5.00	
C=CCN1C(=O)/C(=C/c2cc(Cl)cc(Cl)c2)SC1=S		inactive	4.51	inactive
O=C1NC(=S)S/C1=C\c1ccc(-c2ccccc2)cc1	inactive	inactive		
O=C1NC(=S)S/C1=C\c1ccc2nsnc2c1	inactive	inactive		
CN(C)CCCOc1ccc(/C=C2\SC(=S)N(CCC(=O)O)C2=O)cc1		inactive		
O=C1/C(=C/c2coc3c(Cl)cc(Cl)cc3c2=O)SC(=S)N1Cc1ccccc1		inactive	5.13	
O=C(O)CN1C(=O)/C(=C/c2ccc3nsnc3c2)SC1=S	inactive	inactive		
O=C1NC(=S)S/C1=C\c1cnc2ccccc2n1		inactive	4.37	inactive
CCN1C(=O)/C(=C/c2coc3c(Cl)cc(Cl)cc3c2=O)SC1=S		inactive	5.29	
C=CCN1C(=O)/C(=C/c2cnc3ccccc3n2)SC1=S	inactive	inactive		

Compound	inhibition [1]	inhibition [2]	pIC50 [3]	inhibition [4]
O=C(O)CN1C(=O)/C(=C/C2=Cc3ccccc3OC2)SC1=S	inactive	inactive		
O=C(O)CN1C(=O)/C(=C/c2cc(Cl)cc(Cl)c2)SC1=S		inactive	5.26	inactive
O=C(O)CCN1C(=O)/C(=C/C2=Cc3ccccc3OC2)SC1=S		inactive	4.63	
CCN1C(=O)/C(=C/c2cnc3ccccc3n2)SC1=S	inactive	inactive		
C=CCN1C(=O)/C(=C/c2ccc(Br)cc2)SC1=S	inactive	inactive		
O=C1NC(=S)S/C1=C\c1csc2ccc(Cl)cc12		inactive	5.26	
C=CCN1C(=O)/C(=C/c2ccc3nonc3c2)SC1=S	inactive	inactive		
O=C1NC(=S)S/C1=C\c1cc(Cl)cc(Cl)c1		inactive	5.12	
O=C(O)CCN1C(=O)/C(=C/c2csc3ccc(Cl)cc23)SC1=S		inactive	4.32	inactive
O=C1/C(=C/c2ccc3nonc3c2)SC(=S)N1Cc1ccccc1		inactive	4.28	
O=C1/C(=C/c2cc(Cl)cc(Cl)c2)SC(=S)N1Cc1ccccc1		inactive	4.30	inactive
O=C(O)CCN1C(=O)/C(=C/c2ccc(Br)cc2)SC1=S		inactive	5.05	
C=CCN1C(=O)/C(=C/c2ccc(OCCCN(C)C)cc2)SC1=S		inactive	5.44	
C=CCN1C(=O)/C(=C/c2csc3ccc(Cl)cc23)SC1=S	inactive	inactive		
CCN1C(=O)/C(=C/c2ccc(-c3ccccc3)cc2)SC1=S	inactive	inactive		
O=C(O)CCN1C(=O)/C(=C/c2cc(Cl)cc(Cl)c2)SC1=S		inactive	5.36	inactive
O=C(O)CN1C(=O)/C(=C/c2ccc3nonc3c2)SC1=S	inactive	inactive		
O=C(O)CN1C(=O)/C(=C/c2ccc(-c3ccccc3)cc2)SC1=S		inactive	4.14	
CCN1C(=O)/C(=C/c2cc(Cl)cc(Cl)c2)SC1=S		inactive	5.51	inactive
C=CCN1C(=O)/C(=C/C2=Cc3ccccc3OC2)SC1=S	inactive	inactive		
